Data: PubChem BioAssay AID1919000 (Molecular Pharmacology Branch, DTP, NCI, 2023)
Blank lines part the entries; values can stand above or below the compound they belong to.

System: 653999-131-R-J2-PDC complex spheroids, growth % test/control
Experiment: Anticancer human tumor 653999-131-R-J2-PDC patient-derived lung adenocarcinoma cell line growth inhibition [AhR]
Conditions: for IC50: curve of first compound; for viability, T/C: stronger effect = lower value
Procedure, shortened: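 Agents were dosed in half-log steps down from roughly clinical Cmax, or from 10 microM where Cmax was unknown, alone and with AhR antagonists. Read-out: percent test/control growth of tumor spheroids containing HUVEC and MSC stromal cells.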

[1] = second compound 0.1 µM, first compound 0.0316 µM
[2] = second compound 0.1 µM, first compound 0.1 µM
[3] = second compound 0.1 µM, first compound 0.316 µM
[4] = second compound 0.1 µM, first compound 1 µM
[5] = second compound 0.316 µM, first compound 0.0316 µM
[6] = second compound 0.316 µM, first compound 0.1 µM
[7] = second compound 0.316 µM, first compound 0.316 µM
[8] = second compound 0.316 µM, first compound 1 µM
[9] = second compound 1 µM, first compound 0.0316 µM
[10] = second compound 1 µM, first compound 0.1 µM
[11] = second compound 1 µM, first compound 0.316 µM
[12] = second compound 1 µM, first compound 1 µM
[13] = second compound 3.16 µM, first compound 0.0316 µM
[14] = second compound 3.16 µM, first compound 0.1 µM
[15] = second compound 3.16 µM, first compound 0.316 µM
[16] = second compound 3.16 µM, first compound 1 µM
[17] = second compound 10 µM, first compound 0.0316 µM
[18] = second compound 10 µM, first compound 0.1 µM
[19] = second compound 10 µM, first compound 0.316 µM
[20] = second compound 10 µM, first compound 1 µM
[21] = second compound 0.1 µM, first compound 3.16 µM
[22] = second compound 0.1 µM, first compound 10 µM
[23] = second compound 0.316 µM, first compound 3.16 µM
[24] = second compound 0.316 µM, first compound 10 µM
[25] = second compound 1 µM, first compound 3.16 µM
[26] = second compound 1 µM, first compound 10 µM
[27] = second compound 3.16 µM, first compound 3.16 µM
[28] = second compound 3.16 µM, first compound 10 µM
[29] = second compound 10 µM, first compound 3.16 µM
[30] = second compound 10 µM, first compound 10 µM
[31] = second compound 0.1 µM, first compound 0.00949 µM
[32] = second compound 0.1 µM, first compound 0.03 µM
[33] = second compound 0.1 µM, first compound 0.0949 µM
[34] = second compound 0.1 µM, first compound 0.3 µM
[35] = second compound 0.316 µM, first compound 0.00949 µM
[36] = second compound 0.316 µM, first compound 0.03 µM
[37] = second compound 0.316 µM, first compound 0.0949 µM
[38] = second compound 0.316 µM, first compound 0.3 µM
[39] = second compound 1 µM, first compound 0.00949 µM
[40] = second compound 1 µM, first compound 0.03 µM
[41] = second compound 1 µM, first compound 0.0949 µM
[42] = second compound 1 µM, first compound 0.3 µM
[43] = second compound 3.16 µM, first compound 0.00949 µM
[44] = second compound 3.16 µM, first compound 0.03 µM
[45] = second compound 3.16 µM, first compound 0.0949 µM
[46] = second compound 3.16 µM, first compound 0.3 µM
[47] = second compound 10 µM, first compound 0.00949 µM
[48] = second compound 10 µM, first compound 0.03 µM
[49] = second compound 10 µM, first compound 0.0949 µM
[50] = second compound 10 µM, first compound 0.3 µM
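Further: spheroids exposed to agents for seven days.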
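Wherever viability, T/C is given: 100% = DMSO vehicle control viability.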

IC50 (second compound 0.1 µM): 0.162 µM
IC50 (second compound 0.316 µM): 0.134 µM
IC50 (second compound 1 µM): 0.168 µM
IC50 (second compound 3.16 µM): 0.1 µM
IC50 (second compound 10 µM): 0.0536 µM
Structure (SMILES): CC1COCCN1c1cc(-c2ccnn2C)c2ccnc(-c3ccn[nH]3)c2n1 (stereo not given) + CC(CO)NC(=O)c1cc(-c2ccc(Cl)cc2)nn(-c2cnn(C)c2)c1=O
viability, T/C (second compound 0.1 µM, first compound 0.00316 µM): 102%
viability, T/C (second compound 0.1 µM, first compound 0.01 µM): 101%
viability, T/C [1]: 94%
viability, T/C [2]: 60.2%
viability, T/C [3]: 36.4%
viability, T/C [4]: 28.4%
viability, T/C (second compound 0.316 µM, first compound 0.00316 µM): 103%
viability, T/C (second compound 0.316 µM, first compound 0.01 µM): 103%
viability, T/C [5]: 76.1%
viability, T/C [6]: 56.5%
viability, T/C [7]: 36.3%
viability, T/C [8]: 27.9%
viability, T/C (second compound 1 µM, first compound 0.00316 µM): 97.3%
viability, T/C (second compound 1 µM, first compound 0.01 µM): 105%
viability, T/C [9]: 80.6%
viability, T/C [10]: 60.1%
viability, T/C [11]: 39.5%
viability, T/C [12]: 30.4%
viability, T/C (second compound 3.16 µM, first compound 0.00316 µM): 94%
viability, T/C (second compound 3.16 µM, first compound 0.01 µM): 97.7%
viability, T/C [13]: 89.9%
viability, T/C [14]: 49.9%
viability, T/C [15]: 35.6%
viability, T/C [16]: 32.9%
viability, T/C (second compound 10 µM, first compound 0.00316 µM): 92.3%
viability, T/C (second compound 10 µM, first compound 0.01 µM): 86.4%
viability, T/C [17]: 57%
viability, T/C [18]: 41.5%
viability, T/C [19]: 30.7%
viability, T/C [20]: 29.2%

IC50 (second compound 0.1 µM): 8.45 µM
IC50 (second compound 0.316 µM): 7.79 µM
IC50 (second compound 1 µM): 8.13 µM
IC50 (second compound 3.16 µM): 7 µM
IC50 (second compound 10 µM): 6.94 µM
Structure (SMILES): COc1ccc([C@@H](O)c2cc(-c3ncnc4cc(N5CCOCC5)ccc34)c(F)cc2Cl)nn1 + CC(CO)NC(=O)c1cc(-c2ccc(Cl)cc2)nn(-c2cnn(C)c2)c1=O
viability, T/C [1]: 91.5%
viability, T/C [2]: 86.9%
viability, T/C [3]: 85.4%
viability, T/C [4]: 73.6%
viability, T/C [21]: 63.9%
viability, T/C [22]: 47.6%
viability, T/C [5]: 89.9%
viability, T/C [6]: 90.2%
viability, T/C [7]: 87.8%
viability, T/C [8]: 80%
viability, T/C [23]: 66.8%
viability, T/C [24]: 45.2%
viability, T/C [9]: 90.4%
viability, T/C [10]: 95.4%
viability, T/C [11]: 95.2%
viability, T/C [12]: 84.5%
viability, T/C [25]: 65.4%
viability, T/C [26]: 46.6%
viability, T/C [13]: 96%
viability, T/C [14]: 96.8%
viability, T/C [15]: 100%
viability, T/C [16]: 77.4%
viability, T/C [27]: 60.3%
viability, T/C [28]: 45.4%
viability, T/C [17]: 90%
viability, T/C [18]: 95.3%
viability, T/C [19]: 90.8%
viability, T/C [20]: 75.3%
viability, T/C [29]: 59.5%
viability, T/C [30]: 45.6%

More lines, now with the values behind:

Structure (SMILES): CC1COCCN1c1cc(C2(S(C)(=N)=O)CC2)nc(-c2ccnc3[nH]ccc23)n1 (stereo not given) + CC(CO)NC(=O)c1cc(-c2ccc(Cl)cc2)nn(-c2cnn(C)c2)c1=O
IC50 (second compound 0.1 µM): 8.97 µM
IC50 (second compound 0.316 µM): > 10 µM
IC50 (second compound 1 µM): > 10 µM
IC50 (second compound 3.16 µM): 7.88 µM
IC50 (second compound 10 µM): 3.94 µM
viability, T/C [1]: 102%
viability, T/C [2]: 97.6%
viability, T/C [3]: 97.8%
viability, T/C [4]: 87.3%
viability, T/C [21]: 75.2%
viability, T/C [22]: 47.1%
viability, T/C [5]: 101%
viability, T/C [6]: 95.6%
viability, T/C [7]: 103%
viability, T/C [8]: 83.3%
viability, T/C [23]: 71.3%
viability, T/C [24]: 52.6%
viability, T/C [9]: 101%
viability, T/C [10]: 95.4%
viability, T/C [11]: 101%
viability, T/C [12]: 91%
viability, T/C [25]: 73.9%
viability, T/C [26]: 51.5%
viability, T/C [13]: 92.7%
viability, T/C [14]: 107%
viability, T/C [15]: 100%
viability, T/C [16]: 88.8%
viability, T/C [27]: 55.6%
viability, T/C [28]: 48.5%
viability, T/C [17]: 111%
viability, T/C [18]: 98.5%
viability, T/C [19]: 100%
viability, T/C [20]: 78%
viability, T/C [29]: 51.5%
viability, T/C [30]: 41.8%

Structure (SMILES): Nc1ncn(C2CC(O)C(CO)S2)c(=O)n1 (stereo not given) + CC(CO)NC(=O)c1cc(-c2ccc(Cl)cc2)nn(-c2cnn(C)c2)c1=O
IC50 (second compound 0.1 µM): > 0.3 µM
IC50 (second compound 0.316 µM): > 0.3 µM
IC50 (second compound 1 µM): > 0.3 µM
IC50 (second compound 3.16 µM): > 0.3 µM
IC50 (second compound 10 µM): > 0.3 µM
viability, T/C (second compound 0.1 µM, first compound 0.000949 µM): 101%
viability, T/C (second compound 0.1 µM, first compound 0.003 µM): 117%
viability, T/C [31]: 111%
viability, T/C [32]: 103%
viability, T/C [33]: 97.3%
viability, T/C [34]: 84.8%
viability, T/C (second compound 0.316 µM, first compound 0.000949 µM): 106%
viability, T/C (second compound 0.316 µM, first compound 0.003 µM): 121%
viability, T/C [35]: 134%
viability, T/C [36]: 100%
viability, T/C [37]: 104%
viability, T/C [38]: 88.1%
viability, T/C (second compound 1 µM, first compound 0.000949 µM): 119%
viability, T/C (second compound 1 µM, first compound 0.003 µM): 115%
viability, T/C [39]: 110%
viability, T/C [40]: 103%
viability, T/C [41]: 110%
viability, T/C [42]: 84%
viability, T/C (second compound 3.16 µM, first compound 0.000949 µM): 121%
viability, T/C (second compound 3.16 µM, first compound 0.003 µM): 101%
viability, T/C [43]: 104%
viability, T/C [44]: 121%
viability, T/C [45]: 101%
viability, T/C [46]: 96.4%
viability, T/C (second compound 10 µM, first compound 0.000949 µM): 117%
viability, T/C (second compound 10 µM, first compound 0.003 µM): 120%
viability, T/C [47]: 127%
viability, T/C [48]: 127%
viability, T/C [49]: 116%
viability, T/C [50]: 103%

Structure (SMILES): O=C(C=Cn1cnc(-c2cc(C(F)(F)F)cc(C(F)(F)F)c2)n1)NNc1cnccn1 + CC(CO)NC(=O)c1cc(-c2ccc(Cl)cc2)nn(-c2cnn(C)c2)c1=O
IC50 (second compound 0.1 µM): 0.766 µM
IC50 (second compound 0.316 µM): 0.771 µM
IC50 (second compound 1 µM): 0.814 µM
IC50 (second compound 3.16 µM): 1.23 µM
IC50 (second compound 10 µM): > 3 µM
viability, T/C [31]: 103%
viability, T/C [32]: 110%
viability, T/C [33]: 76.1%
viability, T/C [34]: 59.7%
viability, T/C (second compound 0.1 µM, first compound 0.949 µM): 48.9%
viability, T/C (second compound 0.1 µM, first compound 3 µM): 45.1%
viability, T/C [35]: 109%
viability, T/C [36]: 98%
viability, T/C [37]: 71.3%
viability, T/C [38]: 59.7%
viability, T/C (second compound 0.316 µM, first compound 0.949 µM): 51.1%
viability, T/C (second compound 0.316 µM, first compound 3 µM): 40%
viability, T/C [39]: 95.8%
viability, T/C [40]: 103%
viability, T/C [41]: 86.1%
viability, T/C [42]: 61.1%
viability, T/C (second compound 1 µM, first compound 0.949 µM): 51.7%
viability, T/C (second compound 1 µM, first compound 3 µM): 42.8%
viability, T/C [43]: 114%
viability, T/C [44]: 105%
viability, T/C [45]: 96.1%
viability, T/C [46]: 64.2%
viability, T/C (second compound 3.16 µM, first compound 0.949 µM): 55.5%
viability, T/C (second compound 3.16 µM, first compound 3 µM): 43.6%
viability, T/C [47]: 111%
viability, T/C [48]: 101%
viability, T/C [49]: 86.5%
viability, T/C [50]: 65.6%
viability, T/C (second compound 10 µM, first compound 0.949 µM): 54%
viability, T/C (second compound 10 µM, first compound 3 µM): 54.4%
